Assay results reported in patent US12011452B2, “Compositions and methods for treatment of mitochondrial respiratory chain dysfunction and other mitochondrial disorders” (The Children's Hospital of Philadelphia, priority 2018, dated 2024).
Structures can show the parent of a compound that is named as a salt. Where two headings read alike, the source gives them in different places.

Columns and labels:
N2 = assay: GSH levels in worms by HPLC-ECD after GSH depleting agent; format: in vivo, C. elegans; conditions: treated for 24 hours
Experimental: FIG. 28. Effect of the GSH Depleting agent, Diethyl Maleate (DEM). Worms were treated with DEM for 24 hours.
GSH levels are an important parameter to evaluate the physiological effects of mitochondrial disease. In the present example, the development and optimization of an HPLC-ECD assay to sensitively quantify reduced (GSH) and oxidized (GSSG) glutathione levels in C. elegans is described. We have optimized each of the following: mobile phase buffer composition, homogenization conditions, deproteinizing conditions and reducing agents.

[1] = system: DLD-1 deficient (did-1 RNAi) C. elegans; assay: Animal size (length) of DLD-1 deficient (dld-1 RNAi) worms, COPAS Biosorter; format: in vivo; conditions: dld-1 RNAi worms; conc.: Nicotinic Acid 1 mM; Riboflavin 10 uM; Thiamine 25 mM; L-Carnitine 100 uM; Folinic Acid 10 uM; Glucose 10 uM; DCA 25 mM; Cysteamine 100 um; NAC 2.5 Mm; AICAR 500 uM; Hydralazine 200 uM; Lithium Chloride 10 mM; Cyclohexamide 2 uM; Arginine 10 mM; Taurine 800 uM; Resveratrol 50 uM; Rapamycin 2.5 nM; Probucol 5 uM; Lipoic Acid 10 uM; Vitamin E 250 uM
Experimental: RNAi feeding—DLD-1 RNAi clone (LLC1.3) was obtained from the Ahringer RNAi collection and was sequence confirmed prior to use. The vector L4440 was utilized as a control.
(§1) Brood size analysis—Worms were synchronized by picking ten to fifteen N2 gravid adult worms onto NGM plates containing 0.2 mM IPTG, ampicillin and tetracycline spread with DLD-1 (LLCI.3) or L4440 bacteria and allowed to lay eggs for 2-2.5 hours. A single L4 larvae from the egg lay was placed on a 4 mm dish containing NGM and corresponding RNAi clone and allowed to lay eggs for 24 hours before being transferred to a fresh 4 mm NGM plate. Worms were transferred to fresh plates for 5 days and progeny were counted from each plate. Western blot analysis—Approximately 500 young adult worms were briefly washed with S. basal media before resuspension in 250 uL of RIPA buffer (50 mM Tris HCl, pH 8.0, 150 mM NaCl, 1.0% NP-40, 0.5% sodium deoxycholate, 1.0 mM EDTA, 0.1% SDS) containing a 1/100 dilution of Protease inhibitor cocktail (Sigma). Worms were lysed using a mechanical hand homogenizer and pestle on ice and the resulting lysate was maintained at constant agitation for 30 minutes at 4° C. Lysate was subsequently centrifuged for 20 minutes at 16,000 rpm and the supernatant was removed. Protein concentration was determined using the Pierce BCA protein assay kit. 30 ug of whole cell lysate was utilized and blots were probed with anti-LAD monoclonal antibody at a 1:7500 dilution (abcam) to detect the DLD-1 protein. As a loading control blots were additionally probed with anti-Beta tubulin (source) at a […]. Chemotaxis Assay—Chemotaxis analysis was performed as has been previously described (Haroon, S. J. of Cell Reports (2018); pmid:29562168). In brief, approximately 30 worms were collected and washed with S. basal media. Worms were placed 5 cm away from a spot containing 2 uL of 10% isoamyl alcohol dissolved in 100% ethanol and 1 uL of 10% sodium azide. After one hour distance traveled by each worm was marked and analyzed via image J. Length Analysis—A synchronized population of worms grown on L4440 and LLCI.3 RNAi clones were monitored from the L4 stage of development till day 5 of adulthood. On the day of length analysis […] Quantification of Hsp6::GFP induction—A synchronized egg lay using 15-20 Hsp6::GFP gravid young adult worms on L4440 or LLCI.3 RNAi clones was performed to induce depletion of DLD-1 protein. Day 1 young adult worms were washed once in 4-5 mL of S. basal in a 50 mL conical tube and pelleted by centrifugation at 1300×g for 1 minute. Spent S. basal was removed and worms were resuspended in a final volume of 10 mL in preparation for biosorter analysis. An excitation wavelength of 488 nm and emission filter of 510 nm was utilized to measure induction of Hsp6::GFP induction in individual worms. Experiments were conducted with approximately 300 worms per sample with three biological replicates for each condition tested.
(§2) DLD depletion in C. elegans was achieved by feeding wild-type (N2 Bristol) worms E. coli expressing a dsRNA targeting DLD-1 messenger RNA. Brood size, survival, activity, growth (length), DLD-1 expression, and mitochondrial unfolded protein response (UPR^mt) were quantified in the resulting DLD-1^−/− animals. High throughput semi-automated analyses of animal growth (length) and mitochondrial stress response (UPR^mt) were also measured in day 1 adult worm populations using the COPAS Biosorter (Union Biometrica).
(§3) Therapeutic impact on DLD-1^−/− C. elegans UPR^mt induction and growth (length), as well as DLDH−/− zebrafish survival, liver morphology, and swimming behavior were tested for 5 therapies, including a PDH activator (dichloroacetate, DCA), PDH cofactors (thiamine, riboflavin, lipoic acid), and a lipid lowering drug that functions as a signaling modifier to inhibit mTORCI and activate AMPK and PPAR (probucol).

hsp-6p::GFP [2] = assay: Mitochondrial stress (UPRmt) hsp-6p::GFP induction in dld-1 RNAi worms; format: in vivo, C. elegans; conditions: dld-1 RNAi worms; conc.: Nicotinic Acid 1 mM; Riboflavin 10 uM; Thiamine 25 mM; L-Carnitine 100 uM; Folinic Acid 10 uM; Glucose 10 uM; DCA 25 mM; Cysteamine 100 um; NAC 2.5 Mm; AICAR 500 uM; Hydralazine 200 uM; Lithium Chloride 10 mM; Cyclohexamide 2 uM; Arginine 10 mM; Taurine 800 uM; Resveratrol 50 uM; Rapamycin 2.5 nM; Probucol 5 uM; Lipoic Acid 10 uM; Vitamin E 250 uM
Experimental: as §1, §2, §3

NUBPL^−/− C. elegans = assay: Lifespan of NUBPL-/- C. elegans model of Complex I disease; format: in vivo; conditions: Glu 10 mM, NAC 2.5 mM, DCA 25 mM, single biological replicate
Source text: We obtained a genetic knockout NUBPL (34.7% homology) worm strain TM3754 from the National BioResource Project, which has a 478 base pair deletion. […] The mutation in this strain is currently not balanced, so to balance it and obtain a homozygous mutant strain we have outcrossed it with FX30168 tm18[dpy-5(tmIs1236)]).
These animal models can be used to advantage for identifying new agents useful for the treatment of mitochondrial and other respiratory chain disorders. […] NUBPL is a nuclear gene-encoded complex I assembly factor, in which autosomal recessive (biallelic) mutations cause severe human mitochondrial disease manifesting with cerebellar ataxia and Leigh syndrome.

SURF1-del1−/− zebrafish = assay: SURF1 knockout zebrafish pre-treatment before NaN3 exposure: brain death, startle response; format: in vivo
Source text: The phenotypes assessed can include without limitation, swimming activity or swimming fatigue, organ structural impairment or dysfunction gray brain alterations in mitochondrial physiology (=brain death) (FIG. 36C), heart rate, startle (tap) response (stimulus on plate), and touch response (stimulus on animal).

gas-1(fc21) C. elegans = assay: Lifespan of gas-1(fc21) Complex I NDUFS2 mutant worms; format: in vivo; conditions: administered at development (L1); previous studies in applicant's lab
gas-1(fc21) worms = assay: Mitochondrial physiology (TMRE, MitoSOX, MitoTracker Green) in gas-1(fc21) worms; format: in vivo, C. elegans; conditions: 24 hour treatment
Experimental: Mitochondrial oxidant burden (MitoSOX Red), membrane potential (tetramethylrhodamine ethyl ester, TMRE), and mitochondrial content (MitoTracker Green FM, MTG) were performed in C. elegans at 20° C. using in vivo terminal pharyngeal bulb relative fluorescence microscopic quantitation. […] Simultaneously with the drug treatments, worms were treated with either 10 μM MitoSOX Red (matrix oxidant burden), 100 nM TMRE (mitochondrial membrane potential), or 2 μM MitoTracker Green FM (mitochondria content) for 24 h. The next day, worms were transferred with a pick onto 35 mm agar plates spread with OP50 E. coli without dye for 1 h to allow clearing of residual dye from the gut. Worms were then paralyzed in situ with 5 mg/ml levamisole. Photographs were taken in a darkened room at 160× magnification with a Cool Snap cf2 camera (Nikon, Melville, N.Y.). A CY3 fluorescence cube set (MZFLIII, Leica, Bannockburn, IL) was used for MitoSOX and TMRE. […] Fluorescence data for each strain were normalized to its same day control to account for day-to-day variation. […] The significance of the difference in the mean fluorescence intensity between strains under different experimental conditions was assessed by mixed-effect ANOVA, which analyzes potential batch effect due to samples being experimentally prepared, processed, and analyzed on different days by including a batch random effect in the model. […]

[3] = system: rotenone treated zebrafish; assay: Rotenone model of brain death in zebrafish; conditions: in vivo
Experimental: FIG. 36B) Wild-type (AB) fish are pre-exposed to drug treatments in their water from 5 days post fertilization (dpf) to 7 dpf. On 7 dpf, Zebrafish are co-treated with 150 nM of Rotenone (complex I inhibitor) and the same drug treatment(s). Zebrafish are then placed on the automated Zebrabox (Viewpoint) for 20 minutes of light at 60% followed by 20 minutes of darkness (eg, light at 0%) to induce a neurobehavioral startle response. The activity from the startle response is binned to 5 minute, and shown here as average activity at 581 minutes post-rotenone exposure. Activity score is normalized using percent of control (POC) to wild-type AB fish. […] Error bars convey standard error of mean. *, p<0.05; **, p<0.01; ***, p<0.001 by Student's T test. Glu, 10 mM glucose. […] NAC, 2.5 mM N-acetylcysteine. […] FIG. 36D+36E.
hsp-6p::GFP [4] = assay: UPRmt in K09A9.5 (gas-1) knockdown hsp-6p::gfp reporter worms; format: in vivo, C. elegans; conditions: 10 mM Glu, 2.5 mM NAC, 1 mM Nicotinic acid
Experimental: UPRmt in C. elegans is assessed using a GFP reporter for hsp-6.

[5] = cited from earlier work
[6] = cited from earlier work; remark: listed apart in the source
[7] = pre-treated from 5 dpf, 45 μM NaN3 from 6 dpf, assessed 7 dpf

Row | Compound | GSH levels (N2) | Size [1] | HSP-6P::GFP (hsp-6p::GFP [2]) | median lifespan of NUBPL−/− worms (NUBPL^−/− C. elegans) | median lifespan of NUBPL−/− worms (NUBPL^−/− C. elegans; listed as N-acetylcysteine) | effect on sodium azide treated (stressor) brains of surf1 KO zebrafish (SURF1-del1−/− zebrafish; FIG. 36D) | decompensation from acute low-dose CIV inhibition (SURF1-del1−/− zebrafish; SURF1−/− animals) | brain death from NaN3 exposure (SURF1-del1−/− zebrafish; [7]) | neuromuscular dysfunction (startle response) from NaN3 exposure (SURF1-del1−/− zebrafish; [7]) | rescue of short lifespan of gas-1(fc21) to wild type N2 levels by individual compounds (gas-1(fc21) C. elegans) | effect on reduced mitochondrial membrane potential (gas-1(fc21) worms) | effect on rotenone treated (stressor) brains of zebrafish [3] | UPRmt stress response (hsp-6p::gfp fluorescence) (hsp-6p::GFP [4]) | half-life ([5]; adults) [h] | metabolism ([5]; in vivo) | urine excretion ([5]; in vivo) | half-life ([5]; neonates) [h] | solubility in chloroform and ether [6] | solubility in water and alcohol [6]
1 | CCOC(=O)/C=C\C(=O)OCC [DEM, Diethyl Maleate] | dose-dependently reduced |  |  |  |  |  |  |  |  |  |  |  |  |  |  |  |  |  | 
2 | CC(=O)N[C@@H](CS)C(=O)O [NAC, N-acetylcysteine] |  | No Effect | No Effect | significantly rescued | improve | protective effects | preventing | prevented | prevented | partially or fully rescue | significantly increases | Protective effects | significantly reduce | 5.6 | extensively liver metabolized | 22-30% | 11 | practically insoluble | soluble
